We go through one compound from article doi:10.1101/307710v1, “Assignment of the resting state of the secondary active transporter BetP by integrating spectroscopic measurements and molecular simulations” (biorxiv, 2018).

For this assay, the target named is T1, BetP (Corynebacterium glutamicum, UniProt P54582).
T1 construct: plasmid pASK-IBA5betP, Strep-Tactin purified from E. coli DH5alpha-T1, reconstituted in E. coli polar lipid liposomes; homotrimer
T1 sequence (P54582 1-595): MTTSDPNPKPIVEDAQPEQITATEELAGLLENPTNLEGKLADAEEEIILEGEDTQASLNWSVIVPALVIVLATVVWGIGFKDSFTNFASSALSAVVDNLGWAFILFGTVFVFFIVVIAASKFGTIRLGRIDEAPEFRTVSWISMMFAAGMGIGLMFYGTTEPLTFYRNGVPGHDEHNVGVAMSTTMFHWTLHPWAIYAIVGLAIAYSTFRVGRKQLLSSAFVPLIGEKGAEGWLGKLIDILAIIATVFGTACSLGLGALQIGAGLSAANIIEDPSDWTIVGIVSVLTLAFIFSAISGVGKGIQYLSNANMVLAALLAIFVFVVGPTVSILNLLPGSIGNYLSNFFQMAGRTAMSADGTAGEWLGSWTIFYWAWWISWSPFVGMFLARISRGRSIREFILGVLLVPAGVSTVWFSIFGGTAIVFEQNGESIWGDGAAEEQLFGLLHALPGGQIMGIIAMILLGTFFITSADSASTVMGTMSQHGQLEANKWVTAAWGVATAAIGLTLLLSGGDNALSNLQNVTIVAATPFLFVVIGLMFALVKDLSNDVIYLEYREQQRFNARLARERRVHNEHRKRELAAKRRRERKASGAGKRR
As to the kind of experiment: […]-betaine uptake into proteoliposomes. In kind it is biochemical. The settings on record: labelled compound; 50 uM betaine, 25 mM NaCl, pH 7.5, 0.6 osmol/kg, valinomycin.

For the compound `C[N+](C)(C)CC(=O)[O-]` [betaine], the “[14C]-betaine uptake into proteoliposomes” value is “the activity of G450R5/S516R5 is only slightly decreased compared to the wildtype”.
